From ChEMBL document CHEMBL6078685, “Potential COX-2 inhibitors modulating NF-κB/MAPK signaling pathways: Design, synthesis and evaluation of anti-inflammatory activity of Pterostilbene-carboxylic acid derivatives with an oxime ether moiety” (Bioorg Med Chem, 2025) come the findings set out here.

pIC50: −log10 of the molar value.

Data set [1] has as its system RAW264.7. In words: Inhibition of LPS-induced NO release in mouse RAW264.7 cells at 20 uM preincubated with compound for 48 hrs followed by LPS addition and measured after 24 hrs by nitric oxide assay relative to control. In kind it is functional. The conditions noted are these: time 72 hrs.
In data set [2] the test system is RAW264.7. In words: Cytotoxicity against mouse RAW264.7 cells assessed as reduction in cell viability at 20 uM incubated for 48 hrs by MTT method. The settings on record: raw264.7, 48 h. The data set is classed as toxicity, cell-based. (In general: Tetrazolium dyes change colour on reduction, which living cells bring about.)
Data set [3] has as its system RAW264.7. Put plainly: Inhibition of LPS-induced NO release in mouse RAW264.7 cells preincubated with compound for 48 hrs followed by LPS addition and measured after 24 hrs by nitric oxide assay. In kind it is functional, cell-based.
Data set [4] concerns RAW264.7. Put plainly: cells. The settings on record: Mus musculus.
Description: Antiinflammatory activity against mouse RAW264.7 cells assessed as inhibition of LPS-induced IIL-1beta secretion pretreated with LPS for 3 hrs followed by compound addition and measured after 24 hrs by ELISA
Data set [5] relates to RAW264.7. Put plainly: Downregulation of iNOS expression in LPS-induced mouse RAW264.7 cells preincubated for 3 hrs followed by LPS addition for 30 mins by Western blotting analysis. The data set is classed as functional, cell-based. The settings on record: time 3.5 hrs.
The test system of data set [6] is RAW264.7. In words: Antiinflammatory activity against mouse RAW264.7 cells assessed as decrease in LPS-induced TNF-alpha release preincubated for 3 hrs followed by LPS addition for 30 mins by Western blotting analysis. The data set is classed as functional, cell-based. The settings on record: dose 4-16 µM. (In western blotting, separated proteins are transferred to a membrane and probed.)

Data set [7] deals with RAW264.7. In words: Downregulation of COX-2 expression in LPS-induced mouse RAW264.7 cells preincubated for 3 hrs followed by LPS addition for 30 mins by Western blotting analysis. The data set is classed as functional, cell-based. The settings on record: time 3.5 hrs.
In data set [8] the test system is RAW264.7. In words: cells. The conditions noted are these: Mus musculus. The source holds these as a separate data set.
Description: Antiinflammatory activity against mouse RAW264.7 cells assessed as inhibition of LPS-induced IIL-6 secretion pretreated with LPS for 3 hrs followed by compound addition and measured after 24 hrs by ELISA
Data set [9] relates to RAW264.7. In words: Antiinflammatory activity against mouse RAW264.7 cells assessed as decrease in LPS-induced IIL-6 release preincubated for 3 hrs followed by LPS addition for 30 mins by Western blotting analysis. In kind it is functional, cell-based. The settings on record: dose 4-16 µM, time 3.5 hrs.
For data set [10], the system named is RAW264.7. Put plainly: cells. The settings on record: Mus musculus. The source holds these as a separate data set.
Description: Antiinflammatory activity against mouse RAW264.7 cells assessed as inhibition of LPS-induced TNF-alpha secretion pretreated with LPS for 3 hrs followed by compound addition and measured after 24 hrs by ELISA
Data set [11] has as its system RAW264.7. In words: Antiinflammatory activity against mouse RAW264.7 cells assessed as decrease in LPS-induced IIL-1beta release preincubated for 3 hrs followed by LPS addition for 30 mins by Western blotting analysis. In kind it is functional, cell-based. The conditions noted are these: dose 4-16 µM, time 3.5 hrs.

For `CCOC(=O)COc1ccc(/C=C/c2cc(OC)cc(OC)c2/C=N/OCc2ccc(F)cc2)cc1`, the inhibition – broadly, the percentage by which the read-out fell short of the control – at 20 µM in the data set on RAW264.7 [1] was 28.6%. Further, in the data set on RAW264.7 [2], the Activity result was “Non-toxic”.
On to `C#CCO/N=C/c1c(/C=C/c2ccc(OCC(=O)OCC)cc2)cc(OC)cc1OC`, for which the inhibition at 20 µM in the data set with RAW264.7 [1] came to 21.8%. In addition, the Activity result in the data set with RAW264.7 [2] is recorded as “Non-toxic”.
On to `COc1cc(/C=C/c2ccc(OCC(=O)NCCCO)cc2)c(/C=N/OCc2ccc(Cl)cc2)c(OC)c1`, for which the inhibition at 20 µM in the data set with RAW264.7 [1] was 64.6%. The Activity result in the data set on RAW264.7 [2] is given as “Non-toxic”. Further, the pIC50 – broadly, the negative decadic logarithm of the IC50, by convention in mol/L – in the data set with RAW264.7 [3] is 4.74.
As to `COc1cc(/C=C/c2ccc(OCC(=O)O)cc2)c(/C=N/OCc2ccccc2)c(OC)c1`, the inhibition at 20 µM in the data set on RAW264.7 [1] turned out to be 25.2%. For the same compound, in the data set with RAW264.7 [2], the Activity result was “Non-toxic”.
Regarding `CCOC(=O)COc1ccc(/C=C/c2cc(OC)cc(OC)c2/C=N/OCc2ccc(Br)cc2)cc1`, in the data set on RAW264.7 [1], the inhibition at 20 µM is 19.5%. For the same compound, the Activity entry in the data set on RAW264.7 [2] was “Non-toxic”.
As to `COc1cc(/C=C/c2ccc(OCC(=O)NCCCO)cc2)c(/C=N/OCc2ccc(F)cc2)c(OC)c1`, the inhibition at 20 µM with RAW264.7 [1] worked out at 86.7%. In addition, the pIC50 in the data set on RAW264.7 [4] was 5.13; in the data set on RAW264.7 [8], 5.17; with RAW264.7 [3] it was 5.01; in the data set with RAW264.7 [10], 5.04. For the same compound, the Activity entry in the data set with RAW264.7 [5] is “Dose-dependent-effect”; with RAW264.7 [6] it was “Dose-dependent-effect”; in the data set with RAW264.7 [7], “Dose-dependent-effect”; in the data set with RAW264.7 [9] it was “Dose-dependent-effect”; in the data set on RAW264.7 [2], “Non-toxic”; in the data set with RAW264.7 [11], “Dose-dependent-effect”.
As for `CCNC(=O)COc1ccc(/C=C/c2cc(OC)cc(OC)c2/C=N/OCc2ccc(Cl)cc2)cc1`, the inhibition at 20 µM in the data set with RAW264.7 [1] was 49.2%. Further, the Activity entry in the data set with RAW264.7 [2] is “Non-toxic”.
Take `CCNC(=O)COc1ccc(/C=C/c2cc(OC)cc(OC)c2/C=N/OCc2ccc(Br)c(F)c2)cc1`: the inhibition at 20 µM in the data set with RAW264.7 [1] amounted to 42.1%. Also, the Activity entry in the data set with RAW264.7 [2] is “Non-toxic”.
As to `CCOC(=O)COc1ccc(/C=C/c2cc(OC)cc(OC)c2/C=N/OCc2ccc(Cl)cc2)cc1`, the inhibition at 20 µM in the data set on RAW264.7 [1] is 29%. Besides, the Activity entry in the data set with RAW264.7 [2] is given as “Non-toxic”.
On to `COc1cc(/C=C/c2ccc(OCC(=O)NCCCO)cc2)c(/C=N/OCc2ccc(Cl)c(F)c2)c(OC)c1`, for which the inhibition at 20 µM with RAW264.7 [1] is 61%. Also, the Activity result in the data set on RAW264.7 [2] is “Non-toxic”. Moreover, in the data set with RAW264.7 [3], the pIC50 was 4.76.
`COc1cc(/C=C/c2ccc(OCC(=O)O)cc2)c(/C=N/OCc2ccc(Br)cc2)c(OC)c1`: in the data set with RAW264.7 [1], the inhibition at 20 µM worked out at 13.7%. For the same compound, the Activity entry with RAW264.7 [2] is recorded as “Non-toxic”.
With `CCOC(=O)COc1ccc(/C=C/c2cc(OC)cc(OC)c2/C=N/OCc2ccc(C)cc2)cc1`, the inhibition at 20 µM in the data set on RAW264.7 [1] is 20%. Besides, the Activity result in the data set on RAW264.7 [2] is listed as “Non-toxic”.
As to `COc1cc(/C=C/c2ccc(OCC(=O)O)cc2)c(/C=N/OCc2ccc(C(F)(F)F)cc2)c(OC)c1`, the inhibition at 20 µM in the data set with RAW264.7 [1] stood at 21.8%. Besides, the Activity result in the data set on RAW264.7 [2] is recorded as “Non-toxic”.
On to `CCNC(=O)COc1ccc(/C=C/c2cc(OC)cc(OC)c2/C=N/OCc2ccc(F)cc2)cc1`, for which, in the data set on RAW264.7 [1], the inhibition at 20 µM amounted to 68.5%. Further, in the data set on RAW264.7 [2], the Activity entry is listed as “Non-toxic”. Besides, the pIC50 in the data set with RAW264.7 [3] was 4.84.
Regarding `CCNC(=O)COc1ccc(/C=C/c2cc(OC)cc(OC)c2/C=N/OCc2ccccc2)cc1`, in the data set with RAW264.7 [1], the inhibition at 20 µM turned out to be 71.3%. The Activity entry in the data set with RAW264.7 [2] is listed as “Non-toxic”. Also, the pIC50 in the data set with RAW264.7 [3] is 4.91.
`CCCCCCCC(=O)OCCCNC(=O)COc1ccc(/C=C/c2cc(OC)cc(OC)c2/C=N/OCc2ccc(F)cc2)cc1`: in the data set on RAW264.7 [1], the inhibition at 20 µM came to 20.8%. In addition, the Activity entry in the data set with RAW264.7 [2] was “Non-toxic”.
For `COc1cc(/C=C/c2ccc(OCC(=O)NCCCO)cc2)c(/C=N/OCc2ccccc2)c(OC)c1`, in the data set on RAW264.7 [1], the inhibition at 20 µM is 34.7%. Besides, in the data set with RAW264.7 [2], the Activity entry was “Non-toxic”.
With `CCOC(=O)COc1ccc(/C=C/c2cc(OC)cc(OC)c2/C=N/OCc2ccc(Br)c(F)c2)cc1`, the inhibition at 20 µM with RAW264.7 [1] is 29.3%. For the same compound, in the data set on RAW264.7 [2], the Activity result is “Non-toxic”.
Turning to `C#CCO/N=C/c1c(/C=C/c2ccc(OCC(=O)O)cc2)cc(OC)cc1OC`, the inhibition at 20 µM in the data set on RAW264.7 [1] was 22.2%. Also, in the data set on RAW264.7 [2], the Activity entry is “Non-toxic”.
In the case of `CCOC(=O)COc1ccc(/C=C/c2cc(OC)cc(OC)c2/C=N/OCc2ccccc2)cc1`, the inhibition at 20 µM in the data set with RAW264.7 [1] was found to be 37.8%. Besides, the Activity result with RAW264.7 [2] is “Non-toxic”.
As for `COc1cc(/C=C/c2ccc(OCC(=O)O)cc2)c(/C=N/OCc2ccc(C)cc2)c(OC)c1`, in the data set on RAW264.7 [1], the inhibition at 20 µM was found to be 18.9%. Moreover, the Activity result with RAW264.7 [2] is “Non-toxic”.
With `CCCCO/N=C/c1c(/C=C/c2ccc(OCC(=O)OCC)cc2)cc(OC)cc1OC`, in the data set with RAW264.7 [1], the inhibition at 20 µM worked out at 17.2%. Besides, the Activity entry with RAW264.7 [2] is on record as “Non-toxic”.
In the case of `COc1cc(/C=C/c2ccc(OCC(=O)O)cc2)c(/C=N/OCc2ccc(Br)c(F)c2)c(OC)c1`, the inhibition at 20 µM in the data set on RAW264.7 [1] amounted to 25.8%. Moreover, the Activity entry in the data set with RAW264.7 [2] is listed as “Non-toxic”.
For the compound `CCNC(=O)COc1ccc(/C=C/c2cc(OC)cc(OC)c2/C=N/OCc2ccc(Cl)c(F)c2)cc1`, in the data set with RAW264.7 [1], the inhibition at 20 µM was found to be 40.6%. In the data set with RAW264.7 [2], the Activity result is on record as “Non-toxic”.
The matching figures for `COc1cc(/C=C/c2ccc(OCC(=O)O)cc2)c(/C=N/OCc2ccc(F)cc2)c(OC)c1`: 26.1% and “Non-toxic”.
Regarding `CCOC(=O)COc1ccc(/C=C/c2cc(OC)cc(OC)c2/C=N/OCc2ccc(Cl)c(F)c2)cc1`, the inhibition at 20 µM with RAW264.7 [1] stood at 28.1%. Also, in the data set on RAW264.7 [2], the Activity result is reported as “Non-toxic”.
In the case of `CCCCCC(=O)OCCCNC(=O)COc1ccc(/C=C/c2cc(OC)cc(OC)c2/C=N/OCc2ccc(F)cc2)cc1`, in the data set with RAW264.7 [1], the inhibition at 20 µM turned out to be 33.1%. In the data set with RAW264.7 [2], the Activity entry is “Non-toxic”.
Turning to `CCCCO/N=C/c1c(/C=C/c2ccc(OCC(=O)O)cc2)cc(OC)cc1OC`, the inhibition at 20 µM in the data set on RAW264.7 [1] is 20.2%. Moreover, the Activity entry in the data set with RAW264.7 [2] is given as “Non-toxic”.
For `COc1cc(/C=C/c2ccc(OCC(=O)O)cc2)c(/C=N/OCc2ccc(Cl)c(F)c2)c(OC)c1`, in the data set with RAW264.7 [1], the inhibition at 20 µM stood at 23.8%. Further, the Activity result with RAW264.7 [2] is on record as “Non-toxic”.
Take `COc1cc(/C=C/c2ccc(OCC(=O)NCCCO)cc2)c(/C=N/OCc2ccc(Br)c(F)c2)c(OC)c1`: the inhibition at 20 µM in the data set on RAW264.7 [1] is 48%. Moreover, the Activity entry in the data set on RAW264.7 [2] is reported as “Non-toxic”.
On to `Cc1ccc(-c2cc(C(F)(F)F)nn2-c2ccc(S(N)(=O)=O)cc2)cc1` [CELECOXIB], for which, in the data set on RAW264.7 [1], the inhibition at 20 µM is 29.4%.
For `COc1cc(/C=C/c2ccc(OCC(=O)O)cc2)c(/C=N/OCc2ccc(Cl)cc2)c(OC)c1`, the inhibition at 20 µM in the data set on RAW264.7 [1] was 24.8%. Moreover, the Activity result in the data set on RAW264.7 [2] was “Non-toxic”.
The matching figures for `CCOC(=O)COc1ccc(/C=C/c2cc(OC)cc(OC)c2/C=N/OCc2ccc(C(F)(F)F)cc2)cc1`: 18.6% and “Non-toxic”.
`CCCC(=O)OCCCNC(=O)COc1ccc(/C=C/c2cc(OC)cc(OC)c2/C=N/OCc2ccc(F)cc2)cc1`: in the data set on RAW264.7 [1], the inhibition at 20 µM amounted to 47.1%. The Activity entry in the data set with RAW264.7 [2] is listed as “Non-toxic”.
